Measurements taken from patent US12077503B2, “Substituted cyclic amides and their use as herbicides” (FMC CORPORATION, priority 2015, dated 2024).

Assays:
Test in all cases: Test C postemergence
Format in all cases: in vivo
Conditions in all cases: scale 0 to 100, 0 no effect, 100 complete control
[1] = test system: ragweed (common ragweed, Ambrosia elatior)
Outline: (§1)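 Preemergence: sow in loam-sand soil and treat. Postemergence: grow in peat-moss/vermiculite medium to 2–18 cm (1–4 leaves) and spray. Compound in non-phytotoxic solvent with surfactant; keep in greenhouse 13–15 d; score visually against controls, 0 (none) to 100 (full control).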

Kochia (Kochia scoparia) = test system: Kochia (Kochia scoparia)
Outline: as §1

[2] = test system: morningglory (Ipomoea coccinea)
Outline: as §1

[3] = test system: oilseed rape (Brassica napus)
Outline: as §1

soybean (Glycine max) = test system: soybean (Glycine max)
Outline: as §1

[4] = test system: Galium (catchweed bedstraw, Galium aparine)
Outline: as §1

[5] = test system: velvetleaf (Abutilon theophrasti)
Outline: as §1

[6] = test system: wheat (winter wheat, Triticum aestivum)
Outline: as §1

corn (Zea mays) = test system: corn (Zea mays)
Outline: as §1

[7] = test system: ryegrass, Italian (Italian ryegrass, Lolium multiflorum)
Outline: as §1

[8] = test system: barnyardgrass (Echinochloa crus-galli)
Outline: as §1

[9] = test system: waterhemp (common waterhemp, Amaranthus rudis)
Outline: as §1

[10] = test system: oat, wild (wild oat, Avena fatua)
Outline: as §1

[11] = test system: blackgrass (Alopecurus myosuroides)
Outline: as §1

[12] = test system: johnsongrass (Sorghum halepense)
Outline: as §1

[13] = test system: chickweed (common chickweed, Stellaria media)
Outline: as §1

[14] = test system: nutsedge, yellow (yellow nutsedge, Cyperus esculentus)
Outline: as §1

[15] = test system: foxtail, giant (giant foxtail, Setaria faberii)
Outline: as §1

CN1CC(c2ccc(F)c(F)c2)C(C(=O)Nc2ccccc2S(C)(=O)=O)C1=O (stereo not drawn) [Compound 640]
Plant response rating, Ragweed ([1]; 31 g ai/ha): 0
Plant response rating, Ragweed ([1]; 62 g ai/ha): 25
Plant response rating, Ragweed ([1]; 125 g ai/ha): 30
Plant response rating, Ragweed ([1]; 250 g ai/ha): 55
Plant response rating, Kochia (Kochia (Kochia scoparia); 31 g ai/ha): 20
Plant response rating, Kochia (Kochia (Kochia scoparia); 62 g ai/ha): 30
Plant response rating, Kochia (Kochia (Kochia scoparia); 125 g ai/ha): 30
Plant response rating, Kochia (Kochia (Kochia scoparia); 250 g ai/ha): 75
Plant response rating, Morningglory ([2]; 31 g ai/ha): 35
Plant response rating, Morningglory ([2]; 62 g ai/ha): 40
Plant response rating, Morningglory ([2]; 125 g ai/ha): 55
Plant response rating, Morningglory ([2]; 250 g ai/ha): 40
Plant response rating, Oilseed Rape ([3]; 31 g ai/ha): 20
Plant response rating, Oilseed Rape ([3]; 62 g ai/ha): 15
Plant response rating, Oilseed Rape ([3]; 125 g ai/ha): 50
Plant response rating, Oilseed Rape ([3]; 250 g ai/ha): 60
Plant response rating, Soybean (soybean (Glycine max); 31 g ai/ha): 65
Plant response rating, Soybean (soybean (Glycine max); 62 g ai/ha): 10
Plant response rating, Soybean (soybean (Glycine max); 125 g ai/ha): 10
Plant response rating, Soybean (soybean (Glycine max); 250 g ai/ha): 5
Plant response rating, Galium ([4]; 31 g ai/ha): 50
Plant response rating, Galium ([4]; 62 g ai/ha): 55
Plant response rating, Galium ([4]; 125 g ai/ha): 60
Plant response rating, Galium ([4]; 250 g ai/ha): 65
Plant response rating, Velvetleaf ([5]; 31 g ai/ha): 5
Plant response rating, Velvetleaf ([5]; 62 g ai/ha): 70
Plant response rating, Velvetleaf ([5]; 125 g ai/ha): 25
Plant response rating, Velvetleaf ([5]; 250 g ai/ha): 30
Plant response rating, Wheat ([6]; 31 g ai/ha): 0
Plant response rating, Wheat ([6]; 62 g ai/ha): 0
Plant response rating, Wheat ([6]; 125 g ai/ha): 0
Plant response rating, Wheat ([6]; 250 g ai/ha): 0
Plant response rating, Corn (corn (Zea mays); 31 g ai/ha): 0
Plant response rating, Corn (corn (Zea mays); 62 g ai/ha): 0
Plant response rating, Corn (corn (Zea mays); 125 g ai/ha): 0
Plant response rating, Corn (corn (Zea mays); 250 g ai/ha): 0
Plant response rating, Ryegrass, Italian ([7]; 31 g ai/ha): 0
Plant response rating, Ryegrass, Italian ([7]; 62 g ai/ha): 0
Plant response rating, Ryegrass, Italian ([7]; 125 g ai/ha): 0
Plant response rating, Ryegrass, Italian ([7]; 250 g ai/ha): 5
Plant response rating, Barnyardgrass ([8]; 31 g ai/ha): 0
Plant response rating, Barnyardgrass ([8]; 62 g ai/ha): 0
Plant response rating, Barnyardgrass ([8]; 125 g ai/ha): 10
Plant response rating, Barnyardgrass ([8]; 250 g ai/ha): 10
Plant response rating, Waterhemp ([9]; 31 g ai/ha): 5
Plant response rating, Waterhemp ([9]; 62 g ai/ha): 20
Plant response rating, Waterhemp ([9]; 125 g ai/ha): 10
Plant response rating, Waterhemp ([9]; 250 g ai/ha): 30
Plant response rating, Oat, Wild ([10]; 31 g ai/ha): 0
Plant response rating, Oat, Wild ([10]; 62 g ai/ha): 0
Plant response rating, Oat, Wild ([10]; 125 g ai/ha): 0
Plant response rating, Oat, Wild ([10]; 250 g ai/ha): 5
Plant response rating, Blackgrass ([11]; 31 g ai/ha): 0
Plant response rating, Blackgrass ([11]; 62 g ai/ha): 0
Plant response rating, Blackgrass ([11]; 125 g ai/ha): 0
Plant response rating, Blackgrass ([11]; 250 g ai/ha): 0
Plant response rating, Johnsongrass ([12]; 31 g ai/ha): 0
Plant response rating, Johnsongrass ([12]; 62 g ai/ha): 0
Plant response rating, Johnsongrass ([12]; 125 g ai/ha): 0
Plant response rating, Johnsongrass ([12]; 250 g ai/ha): 0
Plant response rating, Chickweed ([13]; 31 g ai/ha): 25
Plant response rating, Chickweed ([13]; 62 g ai/ha): 0
Plant response rating, Chickweed ([13]; 125 g ai/ha): 60
Plant response rating, Chickweed ([13]; 250 g ai/ha): 35
Plant response rating, Nutsedge, Yellow ([14]; 31 g ai/ha): 0
Plant response rating, Nutsedge, Yellow ([14]; 62 g ai/ha): 0
Plant response rating, Nutsedge, Yellow ([14]; 125 g ai/ha): 0
Plant response rating, Nutsedge, Yellow ([14]; 250 g ai/ha): 10
Plant response rating, Foxtail, Giant ([15]; 31 g ai/ha): 0
Plant response rating, Foxtail, Giant ([15]; 62 g ai/ha): 0
Plant response rating, Foxtail, Giant ([15]; 125 g ai/ha): 10
Plant response rating, Foxtail, Giant ([15]; 250 g ai/ha): 65
